Results: publication PMC3323469, “Comparative study of ^64Cu/NOTA-[D-Tyr^6,βAla^11,Thi^13,Nle^14]BBN(6-14) monomer and dimers for prostate cancer PET imaging” (EJNMMI Research, 2012)
Square brackets hold non-standard residues; d marks the D form. Peptide text beside a SMILES is read from it. * marks the point of attachment. NOTA = O=C(O)CN1CCN(CC(=O)O)CCN(CC(=O)*)CC1; 2Thi = N[C@@H](Cc1cccs1)C(=O)O; Nle = CCCC[C@H](N)C(=O)O; AEEA = NCCOCCOCC(=O)O; βAla = NCCC(=O)O

Experiments:
GRPR [1] = biological target: T1, GRPR (Mus musculus, UniProt P21729); experiment: Biodistribution in Balb/c mice (in vivo GRPR-targeting efficacy); settings: mouse, pancreas, intravenous, total radioactivity; 64Cu-labeled peptide, female Balb/c mice, 30 min p.i.
T1 construct: using the pancreas, a GRPR-rich tissue, as a target for specific receptor-mediated accumulation; from tissue; host or cells: Female Balb/c mice, in vivo; organs (pancreas and others) collected 30 min p.i
Description: To determine the in vivo GRPR-targeting efficacy of labeled peptides, biodistribution of female Balb/c mice were realized with a minimum of 4 mice for each condition. Briefly, mice were injected with 370 to 740 kBq (10 to 20 μCi; 100 μL) of either ^64Cu/NOTA-monomer, ^64Cu/NOTA-dimer 1 or ^64Cu/NOTA-dimer 2 via the caudal vein. The animals were sacrificed with CO2 at 30 min post-injection [p.i.]. Organs of interest were then collected, weighed and measured in a gamma counter. The results were expressed as percentage of the injected dose per gram of tissue [%ID/g].

GRPR [2] = biological target: T2, GRPR (Homo sapiens, UniProt P30550); experiment: Competitive binding assay with [125I-Tyr4]bombesin on PC3 cells; set-up: host or cells: PC3 cells (whole, adherent cells in 24-well plates); settings: read-out: Ki (affinity for GRPR)
Description: Competition assays were performed in 24-well plates using PC3 cells. The cells were cultured until near confluence, and the medium was replaced by 400 μL of reaction medium (RPMI complemented with 2 mg/mL BSA, 4.8 mg/mL HEPES, 1 U/mL penicillin G and 1 μg/mL streptomycin). For the assay, equal volumes of radioactive and non-radioactive ligands were added. […] The plates were incubated for 40 min at 37°C with agitation. After the incubation, the reaction medium was removed, and the cells were washed three times with PBS at room temperature. The cells were harvested and counted in a gamma counter (Cobra II auto-gamma counter, Packard, MN, USA). Experiments were realized three times in triplicate. Data were analyzed with GraphPad Prism 5 Software (GraphPad Software, San Diego, CA, USA) to determine the IC50. Finally, the Ki was determined using Cheng and Pursoff's formula [32].

GRPR [3] = biological target: T2, GRPR; experiment: Competitive binding in human breast cancer T47D cells; settings: tested in triplicate
From the text: Table 1 Analytical data for NOTA-BBN(6-14) monomer and dimmers | column: Peptide

T2 sequence (P30550 whole entry): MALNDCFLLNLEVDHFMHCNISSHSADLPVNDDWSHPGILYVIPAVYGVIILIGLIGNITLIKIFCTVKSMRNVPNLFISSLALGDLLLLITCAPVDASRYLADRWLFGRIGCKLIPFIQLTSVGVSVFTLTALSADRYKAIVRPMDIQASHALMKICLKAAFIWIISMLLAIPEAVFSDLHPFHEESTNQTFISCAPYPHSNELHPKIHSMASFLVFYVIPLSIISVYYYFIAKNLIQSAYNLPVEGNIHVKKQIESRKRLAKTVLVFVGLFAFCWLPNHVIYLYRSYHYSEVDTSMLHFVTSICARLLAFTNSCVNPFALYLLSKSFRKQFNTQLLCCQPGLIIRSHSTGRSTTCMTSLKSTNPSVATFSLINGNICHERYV
T1 sequence (P21729 whole entry): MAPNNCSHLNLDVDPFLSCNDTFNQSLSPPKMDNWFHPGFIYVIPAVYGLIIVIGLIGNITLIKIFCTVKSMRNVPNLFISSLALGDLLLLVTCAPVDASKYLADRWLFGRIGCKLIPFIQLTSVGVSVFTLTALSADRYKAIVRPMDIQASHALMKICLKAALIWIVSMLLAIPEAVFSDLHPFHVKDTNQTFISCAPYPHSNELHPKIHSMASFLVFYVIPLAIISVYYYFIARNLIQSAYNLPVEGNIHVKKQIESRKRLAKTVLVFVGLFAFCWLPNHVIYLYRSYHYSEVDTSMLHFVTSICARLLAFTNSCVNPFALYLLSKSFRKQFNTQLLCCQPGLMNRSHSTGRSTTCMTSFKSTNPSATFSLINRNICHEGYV

CCCC[C@H](NC(=O)[C@H](Cc1cccs1)NC(=O)[C@H](Cc1c[nH]cn1)NC(=O)CCNC(=O)[C@@H](NC(=O)[C@H](C)NC(=O)[C@H](Cc1c[nH]c2ccccc12)NC(=O)[C@H](CCC(N)=O)NC(=O)[C@@H](Cc1ccc(O)cc1)NC(=O)COCCOCCNC(=O)CN1CCN(CC(=O)O)CCN(CC(=O)O)CC1)C(C)C)C(N)=O [NOTA-monomer, NOTA-PEG-BBN(6-14)] ({NOTA-AEEA}-[dY]QWAV[βAla]H[2Thi][Nle]-NH2)
tissue uptake at 0.5 h (GRPR [1]): 18.4 ± 2.9 %ID/g
Ki (GRPR [2]): 2.51 ± 1.54 nM
Ki (GRPR [3]): 1.3 nM
